Measurements from PubChem BioAssay AID248 (DTP/NCI, 2004).
“And” between values parts separate entries of the source, which are not always exact repeats. Equal values may be shown once. Toxic doses and inconclusive results are not listed. Rule as the data show it: active = T/C of 150% or more; inactive = T/C below 125%.

Tested on: L1210 leukemia ip in BDF1 mice, survival T/C
Assay: NCI In Vivo Anticancer Drug Screen. Data for tumor model L1210 Leukemia (intraperitoneal) in B6D2F1 (BDF1) mice
Details: endpoint: mean survival time, higher = longer survival
Summary of the method: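 Mice bearing the transplanted tumor received compound or vehicle. Survival of the treated group was divided by that of the vehicle-treated control group to give the ratio.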

[1] = dose: 100.0 mg/kg/injection, schedule: Q01DX009 (ip), vehicle: saline with Tween-80
[2] = dose: 100.0 mg/kg/injection, schedule: Q04DX003 (ip), vehicle: saline with Tween-80
[3] = dose: 200.0 mg/kg/injection, schedule: Q01DX009 (ip), vehicle: saline with Tween-80
[4] = dose: 200.0 mg/kg/injection, schedule: Q04DX003 (ip), vehicle: saline with Tween-80
[5] = dose: 50.0 mg/kg/injection, schedule: Q01DX009 (ip), vehicle: saline with Tween-80
[6] = dose: 25.0 mg/kg/injection, schedule: Q01DX009 (ip), vehicle: saline
[7] = dose: 50.0 mg/kg/injection, schedule: Q01DX009 (ip), vehicle: saline
[8] = dose: 100.0 mg/kg/injection, schedule: Q01DX009 (ip), vehicle: saline
[9] = dose: 100.0 mg/kg/injection, schedule: Q01DX009 (ip), vehicle: Klucel (hydroxypropylcellulose) (HPC)
[10] = dose: 200.0 mg/kg/injection, schedule: Q01DX009 (ip), vehicle: Klucel (hydroxypropylcellulose) (HPC)
[11] = dose: 400.0 mg/kg/injection, schedule: Q01DX009 (ip), vehicle: Klucel (hydroxypropylcellulose) (HPC)
[12] = dose: 100.0 mg/kg/injection, schedule: Q04DX003 (ip), vehicle: other
[13] = dose: 200.0 mg/kg/injection, schedule: Q04DX003 (ip), vehicle: other
[14] = dose: 400.0 mg/kg/injection, schedule: Q04DX003 (ip), vehicle: other
[15] = dose: 100.0 mg/kg/injection, schedule: Q04DX003 (ip), vehicle: Klucel (hydroxypropylcellulose) (HPC)
[16] = dose: 200.0 mg/kg/injection, schedule: Q04DX003 (ip), vehicle: Klucel (hydroxypropylcellulose) (HPC)
[17] = dose: 400.0 mg/kg/injection, schedule: Q04DX003 (ip), vehicle: Klucel (hydroxypropylcellulose) (HPC)
[18] = dose: 12.5 mg/kg/injection, schedule: Q01DX009 (ip), vehicle: saline
[19] = dose: 100.0 mg/kg/injection, schedule: Q01DX001 (ip), vehicle: saline
[20] = dose: 200.0 mg/kg/injection, schedule: Q01DX001 (ip), vehicle: saline
[21] = dose: 400.0 mg/kg/injection, schedule: Q01DX001 (ip), vehicle: saline
[22] = dose: 400.0 mg/kg/injection, schedule: Q04DX003 (ip), vehicle: saline with Tween-80
[23] = dose: 100.0 mg/kg/injection, schedule: Q01DX001 (ip), vehicle: other
[24] = dose: 200.0 mg/kg/injection, schedule: Q01DX001 (ip), vehicle: other

Measured: T/C

CSc1ccc(OC(=O)Nc2cc(Cl)ccc2C)cc1
inactive: dose: 100.0 mg/kg/injection, schedule: Q01DX001 (ip), vehicle: saline with Tween-80 98 % of control | [1] 95 % of control and 98 % of control | dose: 100.0 mg/kg/injection, schedule: Q04DX002 (ip), vehicle: saline with Tween-80 97 % of control | [2] 96 % of control | dose: 200.0 mg/kg/injection, schedule: Q01DX001 (ip), vehicle: saline with Tween-80 96 % of control | [3] 96 % of control and 103 % of control | dose: 200.0 mg/kg/injection, schedule: Q04DX002 (ip), vehicle: saline with Tween-80 94 % of control and 101 % of control | [4] 98 % of control | dose: 400.0 mg/kg/injection, schedule: Q01DX001 (ip), vehicle: saline with Tween-80 93 % of control | dose: 400.0 mg/kg/injection, schedule: Q04DX002 (ip), vehicle: saline with Tween-80 94 % of control and 105 % of control

CC(=O)OC1CCC2(C)C(=CC=C3C2CCC2(C)C3CC(OC(C)=O)C2C(C)C2CCC(C)CN2C(C)=O)C1 (stereo unspecified)
inactive: [5] 91 % of control | [1] 91 % of control

CCN(CC)CCCC(C)Nc1ccc(O)c2c1C(=O)c1ccccc1C2=O (stereo unspecified)
inactive: [6] 100 % of control | [7] 93 % of control | [8] 104 % of control | dose: 100.0 mg/kg/injection, schedule: Q04DX002 (ip), vehicle: saline 100 % of control | dose: 200.0 mg/kg/injection, schedule: Q04DX002 (ip), vehicle: saline 102 % of control

CCCC(=O)OCC
inactive: [9] 100 % of control | [10] 105 % of control | [11] 97 % of control

CC(Cl)CO (stereo unspecified)
inactive: dose: 75.0 mg/kg/injection, schedule: Q01DX001 (ip), vehicle: carboxymethylcellulose (CMC) 108 % of control | dose: 150.0 mg/kg/injection, schedule: Q01DX001 (ip), vehicle: carboxymethylcellulose (CMC) 97 % of control | dose: 300.0 mg/kg/injection, schedule: Q01DX001 (ip), vehicle: carboxymethylcellulose (CMC) 97 % of control

COC(=O)CCc1ccc(OC)cc1
inactive: [12] 100 % of control | [13] 99 % of control | [14] 106 % of control

CN(C)CCCN=C=NC1CCCCC1
inactive: [15] 98 % of control | [16] 95 % of control

CC(=O)CC(=O)Nc1ccccn1
inactive: [15] 97 % of control | [16] 101 % of control | [17] 98 % of control

CCCCSP(=S)(SCCCC)SCCCC
inactive: dose: 100.0 mg/kg/injection, schedule: Q01DX001 (ip), vehicle: Klucel (hydroxypropylcellulose) (HPC) 94 % of control | [1] 105 % of control | dose: 200.0 mg/kg/injection, schedule: Q01DX001 (ip), vehicle: Klucel (hydroxypropylcellulose) (HPC) 94 % of control | [3] 105 % of control | dose: 400.0 mg/kg/injection, schedule: Q01DX001 (ip), vehicle: Klucel (hydroxypropylcellulose) (HPC) 97 % of control | dose: 400.0 mg/kg/injection, schedule: Q01DX009 (ip), vehicle: saline with Tween-80 102 % of control

C1CC2C(CCCC23OCCO3)C2(C1)OCCO2 (stereo unspecified)
inactive: [8] 115 % of control and 111 % of control | dose: 100.0 mg/kg/injection, schedule: Q04DX003 (ip), vehicle: saline 94 % of control and 99 % of control | dose: 200.0 mg/kg/injection, schedule: Q01DX009 (ip), vehicle: saline 122 % of control and 107 % of control | dose: 200.0 mg/kg/injection, schedule: Q04DX003 (ip), vehicle: saline 112 % of control and 101 % of control | dose: 400.0 mg/kg/injection, schedule: Q01DX009 (ip), vehicle: saline 108 % of control and 98 % of control | dose: 400.0 mg/kg/injection, schedule: Q04DX003 (ip), vehicle: saline 109 % of control and 97 % of control

CCN(CC)S(=O)(=O)c1ccc(C(=O)O)cc1
inactive: [9] 101 % of control | [15] 101 % of control | [10] 104 % of control | [16] 105 % of control | [11] 103 % of control | [17] 92 % of control

COc1ccc(C(=O)NC2CCC2)cc1
inactive: [6] 100 % of control | [7] 108 % of control | [8] 100 % of control

Nc1ncnc2c1ncn2CCCCCl
inactive: dose: 12.0 mg/kg/injection, schedule: Q04DX003 (ip), vehicle: saline 93 % of control | [18] 119 % of control | [6] 97 % of control | dose: 25.0 mg/kg/injection, schedule: Q04DX003 (ip), vehicle: saline 107 % of control | [7] 106 % of control | dose: 50.0 mg/kg/injection, schedule: Q04DX003 (ip), vehicle: saline 93 % of control

S=C(SNC1CCCCC1)SNC1CCCCC1
inactive: [19] 103 % of control | [15] 114 % of control | [20] 94 % of control | [16] 105 % of control | [21] 105 % of control | [17] 107 % of control

COc1cc(C(=O)N(C)C2CCCCC2)cc(OC)c1OC
inactive: [2] 98 % of control | [4] 98 % of control | [22] 102 % of control

NC(=S)N/N=C/c1cc(=O)[nH]c(=O)[nH]1
inactive: dose: 50.0 mg/kg/injection, schedule: Q01DX001 (ip), vehicle: saline 93 % of control | [19] 95 % of control | [20] 98 % of control | [21] 95 % of control

CC(=O)c1cccc(NC(=S)NC(=O)/C=C/c2ccccc2)c1
inactive: [5] 92 % of control | [1] 94 % of control | [2] 100 % of control | [4] 103 % of control

O=C(Nc1ccc(NC(=O)C(Cl)Cl)cc1)C(Cl)Cl
inactive: [15] 97 % of control | [16] 101 % of control | [17] 90 % of control

CCCCN(CCCC)/N=N/c1nc[nH]c1C(=O)OC
inactive: [23] 97 % of control | [24] 97 % of control

COC(=O)C12C(=CCP1(C)=O)C(c1ccccc1)=NN2c1ccccc1 (stereo unspecified)
inactive: dose: 12.5 mg/kg/injection, schedule: Q04DX002 (ip), vehicle: saline with Tween-80 92 % of control | dose: 25.0 mg/kg/injection, schedule: Q04DX002 (ip), vehicle: saline with Tween-80 95 % of control

CC(C)c1ccc(/C=N/NC(=O)C[n+]2ccccc2)cc1
inactive: [18] 100 % of control | [6] 105 % of control | [7] 94 % of control

O=C(N/N=C/c1ccccc1)NNCc1ccccc1
inactive: [23] 97 % of control | [12] 111 % of control | [24] 97 % of control | [13] 101 % of control | dose: 400.0 mg/kg/injection, schedule: Q01DX001 (ip), vehicle: other 104 % of control | [14] 86 % of control

CC(=O)c1ccccc1O.CO.CO.[Cl][Nb][Cl]
inactive: dose: 75.0 mg/kg/injection, schedule: Q01DX001 (ip), vehicle: saline 93 % of control | dose: 150.0 mg/kg/injection, schedule: Q01DX001 (ip), vehicle: saline 90 % of control | dose: 300.0 mg/kg/injection, schedule: Q01DX001 (ip), vehicle: saline 90 % of control

COC(=O)c1cc(C(C)=O)nc2ccccc12
inactive: [2] 94 % of control | [4] 99 % of control | [22] 90 % of control

Nc1nc(Cl)[nH]c(=O)n1
inactive: dose: 12.5 mg/kg/injection, schedule: Q01DX001 (ip), vehicle: Klucel (hydroxypropylcellulose) (HPC) 105 % of control | dose: 25.0 mg/kg/injection, schedule: Q01DX001 (ip), vehicle: Klucel (hydroxypropylcellulose) (HPC) 97 % of control | dose: 50.0 mg/kg/injection, schedule: Q01DX001 (ip), vehicle: Klucel (hydroxypropylcellulose) (HPC) 100 % of control

O=C(NC1CC1(c1ccccc1)c1ccccc1)NC1CC1(c1ccccc1)c1ccccc1 (stereo unspecified)
inactive: dose: 300.0 mg/kg/injection, schedule: Q01DX001 (ip), vehicle: other 86 % of control
